Laboratory results taken from patent US10781236B2, “Bacteriocin composition and method” (priority 2015, dated 2020).

Experiments:
[1] = tested on: L. Sakei LMGT 2799; test: Relative MIC, inhibitory spectrum; format: cell-based, Lactobacillus sakei; conditions: relative to L. lactis IL 1403 = 1
[2] = tested on: L. monocytogenes; test: Antimicrobial activity against problematic bacteria; format: cell-based, Listeria monocytogenes
Procedure: (§1) To screen for bacteriocin producers with broad inhibition spectra (BIS), Lactococcus lactis, Lactobacillus sakei, Lactobacillus plantarum, Listeria innocua, and Staphylococcus aureus from the food and dairy environment were used as indicators in the first round of screening. The antimicrobial screening was performed using the agar diffusion bioassay as previously described (Holo et al., 1991, J. Bacteriol., 173, p 3879-3887). Briefly, indicator cells from overnight cultures were diluted 100-fold in 5 mL of BHI soft agar and plated out as a lawn on BHI agar plates. Potential bacteriocin producers at volumes of 3 μL were spotted on the indicator lawn and then incubated at appropriate temperatures for 24 h for cell growth and cell inhibition. Inhibition was detected as clear zones around the spotted cells.
(§2) As the antimicrobial activity of garvicin KS is relatively broad, we explored further its potential to kill a larger panel of important pathogens. The list contained 147 problematic or potentially problematic bacteria of species belonging to Listeria, Staphylococcus, Streptococcus and Enterococcus, isolated from food and clinical sources. In this assay, we compared the antimicrobial activity of garvicin KS with that of garvicin ML and nisin, the last one being known as a broad inhibition-spectrum bacteriocin (AIKhatib et al., 2014, PLOS One 9:e102246 doi:10.1371/joumal.pone.0102246). […]

[3] = tested on: L. Sakei LMGT 2380; test: Relative MIC, inhibitory spectrum; format: cell-based, Lactobacillus sakei; conditions: relative to L. lactis IL 1403 = 1
[4] = tested on: L. curvatus LMGT 2371; test: Relative MIC, inhibitory spectrum; format: cell-based, Lactobacillus curvatus; conditions: relative to L. lactis IL 1403 = 1
[5] = tested on: L. plantarum LMGT 2352; test: Relative MIC, inhibitory spectrum; format: cell-based, Lactobacillus plantarum; conditions: relative to L. lactis IL 1403 = 1
[6] = tested on: Bacillus cereus LMGT 2805; test: Relative MIC, inhibitory spectrum; format: cell-based; conditions: relative to L. lactis IL 1403 = 1
[7] = tested on: C. tyrobutyricum LMGT 2511; test: Relative MIC, inhibitory spectrum; format: cell-based, Clostridium tyrobutyricum; conditions: relative to L. lactis IL 1403 = 1
[8] = tested on: L. plantarum LMGT 2358; test: Relative MIC, inhibitory spectrum; format: cell-based, Lactobacillus plantarum; conditions: relative to L. lactis IL 1403 = 1
[9] = tested on: E. faecium LMGT 2783; test: Relative MIC, inhibitory spectrum; format: cell-based, Enterococcus faecium; conditions: relative to L. lactis IL 1403 = 1
[10] = tested on: L. monocytogenes LMGT 2650; test: Relative MIC, inhibitory spectrum; format: cell-based, Listeria monocytogenes; conditions: relative to L. lactis IL 1403 = 1
[11] = tested on: L. plantarum LMGT 2357; test: Relative MIC, inhibitory spectrum; format: cell-based, Lactobacillus plantarum; conditions: relative to L. lactis IL 1403 = 1
[12] = tested on: E. faecium; test: Antimicrobial activity against problematic bacteria; format: cell-based, Enterococcus faecium; conditions: food sources
Procedure: as §1, §2

[13] = tested on: L. innocua LMGT 2785; test: Relative MIC, inhibitory spectrum; format: cell-based, Listeria innocua; conditions: relative to L. lactis IL 1403 = 1
[14] = tested on: L. lactis LMGT 2705; test: Relative MIC, inhibitory spectrum; format: cell-based, Lactococcus lactis; conditions: relative to L. lactis IL 1403 = 1
[15] = tested on: Clostridium bifermentans LMGT 2519; test: Relative MIC, inhibitory spectrum; format: cell-based; conditions: relative to L. lactis IL 1403 = 1
[16] = tested on: L. monocytogenes LMGT 2604; test: Relative MIC, inhibitory spectrum; format: cell-based, Listeria monocytogenes; conditions: relative to L. lactis IL 1403 = 1
[17] = tested on: L. Sakei LMGT 2361; test: Relative MIC, inhibitory spectrum; format: cell-based, Lactobacillus sakei; conditions: relative to L. lactis IL 1403 = 1

## garvicin ML
[1]
  Relative MIC value: 8-16
[2]; clinical sources
  number of sensitive strains / number of strains tested: 0/4
[2]; food sources
  number of sensitive strains / number of strains tested: 0/20
[3]
  Relative MIC value: 32
[4]
  Relative MIC value: 32
[5]
  Relative MIC value: 16
[6]
  Relative MIC value: 64
[7]
  Relative MIC value: 32
[8]
  Relative MIC value: 512
[9]
  Relative MIC value: 64
[10]
  Relative MIC value: 64
[11]
  Relative MIC value: 64
[12]
  number of sensitive strains / number of strains tested: 7/7
[13]
  Relative MIC value: 32
[14]
  Relative MIC value: ≤0.25
[15]
  Relative MIC value: 16-32
[16]
  Relative MIC value: 32
[17]
  Relative MIC value: 32
